According to US20190031618A1, “BENZIMIDAZOLE DERIVATIVES USEFUL AS CB-1 INVERSE AGONISTS” (Janssen Pharmaceutica NV, priority 2015, published 2019):

Legend:
[1] = target: Human CB1R (Cannabinoid receptor 1) (Homo sapiens, UniProt P21554); assay: CB-1 in vitro cAMP (HTRF) assay; format: cell-based; details: HEK cells, cAMP HTRF, 250 nM forskolin; mean where tested more than once; read-out: CB1 HEK_cAMP EC50
Method in brief: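 Intracellular cAMP from HTRF ratio (d2-cAMP vs Eu-cryptate anti-cAMP), converted to nM via per-plate standards, in stable human CB1R HEK-293 cells.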

[2] = target: Human CB2R (Cannabinoid receptor 2) (Homo sapiens, UniProt P34972); assay: CB-2 in vitro cAMP (HTRF) assay; format: cell-based; details: HEK cells, cAMP HTRF, 250 nM forskolin; mean where tested more than once; read-out: CB2 HEK_cAMP EC50
Chain of Human CB2R (Cannabinoid receptor 2) (P34972 whole entry): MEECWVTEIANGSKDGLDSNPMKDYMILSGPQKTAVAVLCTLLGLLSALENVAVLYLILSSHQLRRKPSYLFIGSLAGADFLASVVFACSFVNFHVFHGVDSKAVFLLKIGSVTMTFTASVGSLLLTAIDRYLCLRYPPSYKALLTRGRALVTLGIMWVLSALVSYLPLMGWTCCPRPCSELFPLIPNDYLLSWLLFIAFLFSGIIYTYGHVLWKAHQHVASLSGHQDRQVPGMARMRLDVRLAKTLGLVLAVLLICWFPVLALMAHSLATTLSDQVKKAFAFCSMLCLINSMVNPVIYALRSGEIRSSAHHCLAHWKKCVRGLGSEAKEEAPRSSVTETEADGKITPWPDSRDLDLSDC
Method in brief: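 HEK-293 cells stably expressing receptor, plated overnight at 4E5 cells/mL, tested with 1/3 serial dilutions of compound in HBSS/HEPES/BSA buffer with 0.5 mM IBMX and forskolin (diluted to 1.5 μM in buffer). cAMP measured by competitive HTRF immunoassay (d2-cAMP, cryptate anti-cAMP), signal inversely proportional to cAMP.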

Chain of Human CB1R (Cannabinoid receptor 1) (P21554 whole entry): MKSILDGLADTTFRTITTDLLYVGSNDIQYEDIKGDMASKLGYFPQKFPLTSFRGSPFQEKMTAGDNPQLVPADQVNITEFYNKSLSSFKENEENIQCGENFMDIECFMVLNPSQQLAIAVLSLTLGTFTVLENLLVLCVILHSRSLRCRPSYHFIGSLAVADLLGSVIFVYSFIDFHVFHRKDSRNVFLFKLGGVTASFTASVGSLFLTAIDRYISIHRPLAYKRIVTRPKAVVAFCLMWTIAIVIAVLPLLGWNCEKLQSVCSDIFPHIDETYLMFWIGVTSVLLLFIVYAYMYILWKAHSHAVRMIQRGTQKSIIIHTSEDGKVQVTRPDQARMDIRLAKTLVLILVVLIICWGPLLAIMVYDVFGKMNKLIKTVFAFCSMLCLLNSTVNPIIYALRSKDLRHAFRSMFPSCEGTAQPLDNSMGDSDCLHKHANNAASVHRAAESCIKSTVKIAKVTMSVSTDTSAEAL

EC50 [1] | EC50 [2] | Compound
0.011 µM | > 10 µM | Clc1ccc(C(c2ccc(Cl)cc2)c2ccc3nc(C4CC4)n(CCc4ccc(Br)cc4)c3c2)cc1 [Example 27]
0.089 µM | 1.52 µM | O=C(O)c1cccc(S(=O)(=O)N[C@H]2CC[C@H](n3c(C4CC4)nc4ccc(C(c5ccc(Cl)cc5)c5ccc(Cl)cc5)cc43)CC2)c1 [Example 22]
0.028 µM | 0.063 µM | O=S(=O)(N1CCC(n2c(-c3cccnc3)nc3ccc(C(c4ccc(Cl)cc4)c4nccs4)cc32)CC1)C(F)(F)F (stereo not shown) [Example 393]
0.0829 µM | 9.4 µM | O=C(O)c1ccc(-c2cccc(CCn3c(C4CC4)nc4ccc(C(c5ccc(Cl)cc5)c5ccc(Cl)cc5)cc43)c2)cc1 [Example 17]
2.02 µM | > 10 µM | Cc1nc2ccc(C(c3ccc(Cl)cc3)c3nccs3)cc2n1C1Cc2ccccc2C1 (stereo not shown) [Example 361]
0.212 µM | > 10 µM | Clc1ccc(C(c2ccc3nc(C4CC4)n(C4Cc5ccccc5C4)c3c2)c2nccs2)cc1 (stereo not shown) [Example 362]
0.173 µM | 0.698 µM | O=C(O)c1cc(OCCn2c(C3CC3)nc3ccc(C(c4ccc(Cl)cc4)c4ccc(Cl)cc4)cc32)cc(C(F)(F)F)c1 [Example 16]
0.0131 µM | 6.24 µM | NC(=O)c1ccc(S(=O)(=O)N2CCC(n3c(C4CC4)nc4ccc(C(c5ccc(Cl)cc5)c5ccc(Cl)cc5)cc43)CC2)cc1Cl [Example 252]
0.012 µM | > 10 µM | O=S(=O)(N1CCC(n2c(C3CC3)nc3ccc(C(c4ccc(Cl)cc4)c4nccs4)cc32)CC1)C(F)(F)F (stereo not shown) [Example 384]
0.589 µM | 10.2 µM | COc1ccc(S(=O)(=O)N2CCC(n3c(C4CC4)nc4ccc(C(c5ccc(Cl)cc5)c5ccc(Cl)cc5)cc43)CC2)cc1C(=O)O [Example 211]
0.0215 µM | 5.25 µM | NC(=O)COc1ccc(N2CCC(n3c(C4CC4)nc4ccc(C(c5ccc(Cl)cc5)c5ccc(Cl)cc5)cc43)CC2)cc1 [Example 142]
0.0314 µM | > 10 µM | NC(=O)c1ccc(S(=O)(=O)N2CCC(n3c(C4CC4)nc4ccc(C(c5ccc(Cl)cc5)c5ccc(Cl)cc5)cc43)CC2)cc1C(F)(F)F [Example 184]
> 10 µM | > 9.2 µM | CCc1csc(C(c2ccc(Cl)cc2)c2ccc3nc(-c4ccc(Cl)cc4)n(Cc4ccc(Cl)cc4)c3c2)n1 (stereo not shown) [Example 456]
0.0274 µM | 4.88 µM | O=C(OC1CCCC1)N1CCC(n2c(C3CC3)nc3ccc(C(c4ccc(Cl)cc4)c4ccc(Cl)cc4)cc32)CC1 [Example 71]
0.0185 µM | 5.25 µM | CCNC(=O)N1CCC(n2c(C3CC3)nc3ccc(C(c4ccc(Cl)cc4)c4ccc(Cl)cc4)cc32)CC1 [Example 73]
1.69 µM | > 10 µM | CC(C)(C)OC(=O)N1CC(c2nc3ccc(C(c4ccc(Cl)cc4)c4nccs4)cc3n2CCc2cccc(Cl)c2)C1 (stereo not shown) [Example 406]
0.0137 µM | 1.78 µM | NS(=O)(=O)c1cccc(C(=O)N2CCC(n3c(C4CC4)nc4ccc(C(c5ccc(Cl)cc5)c5ccc(Cl)cc5)cc43)CC2)c1 [Example 229]
0.709 µM | > 10 µM | O=C(O)c1ccc(C(=O)N2CCC(n3c(C4CC4)nc4ccc(C(c5ccc(Cl)cc5)c5ccc(Cl)cc5)cc43)CC2)cn1 [Example 231]
0.524 µM | > 10 µM | O=S(=O)(N1CCC(n2c(-c3ccccn3)nc3ccc(C(c4ccc(Cl)cc4)c4nccs4)cc32)CC1)C(F)(F)F (stereo not shown) [Example 385]
0.017 µM | > 10 µM | Clc1ccc(C(c2ccc3nc(C4CC4)n(CCc4cccc(Cl)c4)c3c2)c2nccs2)cc1 (stereo not shown) [Example 423]
0.0333 µM | 8.14 µM | O=C(OC[C@@H](O)[C@H](O)CO)N1CCC(n2c(C3CC3)nc3ccc(C(c4ccc(Cl)cc4)c4ccc(Cl)cc4)cc32)CC1 [Example 102]
0.0337 µM | > 10 µM | COc1cccc(Cn2c(C3CC3)nc3ccc(C(c4ccc(Cl)cc4)c4ccc(Cl)cc4)cc32)c1 [Example 146]
0.0046 µM | > 10 µM | O=S(=O)(N1CCC(Cn2c(C3CC3)nc3ccc(C(O)(c4ccc(Cl)cc4)c4ccc(Cl)cc4)cc32)CC1)C(F)(F)F [Example 294]
0.0044 µM | 0.314 µM | CCOC(=O)COc1ccc(-n2c(C3CC3)nc3ccc(C(c4ccc(Cl)cc4)c4ccc(Cl)cc4)cc32)cc1 [Example 170]
0.0908 µM | 8.7 µM | O=C(O)c1ccc(S(=O)(=O)N[C@H]2CC[C@@H](n3c(C4CC4)nc4ccc(C(c5ccc(Cl)cc5)c5ccc(Cl)cc5)cc43)CC2)cc1 [Example 42]

EC50 [1] | EC50 [2] | Compound
0.621 µM | > 10 µM | O=S(=O)(N1CCC(Cn2cnc3ccc(C(c4ccc(Cl)cc4)c4nccs4)cc32)CC1)C(F)(F)F (stereo not shown) [Example 322]
0.167 µM | > 10 µM | Oc1ccc(-n2c(C3CC3)nc3ccc(C(c4ccc(Cl)cc4)c4ccc(Cl)cc4)cc32)cc1 [Example 171]
0.755 µM | > 10 µM | Clc1ccc(C(c2ccc3nc(-c4ccsc4)n(-c4cccc(Cl)c4)c3c2)c2nccs2)cc1 (stereo not shown) [Example 375]
0.0366 µM | 1.25 µM | NC(=O)c1ccc(C(=O)N2CCC(n3c(C4CC4)nc4ccc(C(c5ccc(Cl)cc5)c5ccc(Cl)cc5)cc43)CC2)cc1 [Example 254]
1.12 µM | > 10 µM | OCc1nc2ccc(C(c3ccc(Cl)cc3)c3nccs3)cc2n1-c1cccc(Cl)c1 (stereo not shown) [Example 374]
0.101 µM | > 10 µM | Cc1cc(S(=O)(=O)N2CCC(n3c(C4CC4)nc4ccc(C(c5ccc(Cl)cc5)c5ccc(Cl)cc5)cc43)CC2)ccc1C(N)=O [Example 206]
0.111 µM | > 10 µM | CCCc1nc2ccc(C(c3ccc(Cl)cc3)c3nccs3)cc2n1-c1cccc(Cl)c1 (stereo not shown) [Example 431]
0.129 µM | > 10 µM | NC(=O)CS(=O)(=O)N1CCC(n2c(C3CC3)nc3ccc(C(c4ccc(Cl)cc4)c4ccc(Cl)cc4)cc32)CC1 [Example 247]
0.379 µM | > 10 µM | CC(Cc1ccc(Cl)cc1)n1c(C(F)F)nc2ccc(C(c3ccc(Cl)cc3)c3nccs3)cc21 (stereo not shown) [Example 329]
0.479 µM | 5.03 µM | O=C(O)c1ccnc(N2CCC(Cn3c(C4CC4)nc4ccc(C(c5ccc(Cl)cc5)c5ccc(Cl)cc5)cc43)CC2)n1 [Example 2]
0.0215 µM | > 10 µM | Oc1cccc(N[C@H]2CC[C@H](n3c(C4CC4)nc4ccc(C(c5ccc(Cl)cc5)c5ccc(Cl)cc5)cc43)CC2)c1 [Example 28]
0.192 µM | > 10 µM | CC(C)c1nc2ccc(C(c3ccc(Cl)cc3)c3nccs3)cc2n1-c1cccc(Cl)c1 (stereo not shown) [Example 402]
0.0155 µM | > 10 µM | NC(=O)c1ccc(S(=O)(=O)N2CCC(n3c(C4CC4)nc4ccc(C(c5ccc(Cl)cc5)c5ccc(Cl)cc5)cc43)CC2)cc1 [Example 262]
4.8 µM | > 10 µM | O=C(c1c[nH]nn1)N1CCC(n2c(C3CC3)nc3ccc(C(c4ccccc4)c4ccccc4)cc32)CC1 [Example 198]
0.0034 µM | > 10 µM | O=S(=O)(N1CCC(n2c(C3CCCO3)nc3ccc(C(O)(c4ccc(Cl)cc4)c4ccc(Cl)cc4)cc32)CC1)C(F)(F)F (stereo not shown) [Example 285]
> 10 µM | > 10 µM | CCOC(=O)N1CCC(n2c(N(C)C)nc3ccc(C(c4ccc(Cl)cc4)c4nccs4)cc32)CC1 (stereo not shown) [Example 439]
0.0156 µM | > 10 µM | Clc1ccc(C(c2ccc(Cl)cc2)c2ccc3nc(C4CC4)n(CCc4cccc(Br)c4)c3c2)cc1 [Example 20]
0.0357 µM | 1.15 µM | O=C(NCc1ccccc1)N1CCC(n2c(C3CC3)nc3ccc(C(c4ccc(Cl)cc4)c4ccc(Cl)cc4)cc32)CC1 [Example 75]
0.0017 µM | > 10 µM | COc1ccc(-n2c(C3CC3)nc3ccc(C(c4ccc(Cl)cc4)c4ccc(Cl)cc4)cc32)cc1 [Example 179]
0.151 µM | > 21 µM | O=C(O)CCc1nc2ccc(C(c3ccc(Cl)cc3)c3ccc(Cl)cc3)cc2n1C1CCN(S(=O)(=O)C(F)(F)F)CC1 [Example 78]
3.15 µM | > 10 µM | CCOC(=O)N1CCC(n2c(C(C)(C)C)nc3ccc(C(c4ccc(Cl)cc4)c4nccs4)cc32)CC1 (stereo not shown) [Example 408]
0.0636 µM | > 10 µM | CCc1nc2ccc(C(O)(c3ccc(Cl)cc3)c3ccc(Cl)cc3)cc2n1C1CCN(S(=O)(=O)C(F)(F)F)CC1 [Example 308]
0.0047 µM | 2.42 µM | O=C(O)c1ccc(S(=O)(=O)N2CCC(n3c(C4CC4)nc4ccc(C(c5ccc(Cl)cc5)c5ccc(Cl)cc5)cc43)CC2)cc1Cl [Example 253]
1.59 µM | 6.4 µM | O=C(O)COc1ccc(N2CCC(n3c(C4CC4)nc4ccc(C(c5ccc(Cl)cc5)c5ccc(Cl)cc5)cc43)CC2)cc1 [Example 152]

Compound | EC50 [1] | EC50 [2]
O=C(O)c1ccc(CN2CCC(n3c(C4CC4)nc4ccc(C(c5ccc(Cl)cc5)c5ccc(Cl)cc5)cc43)CC2)cn1 [Example 106] | 0.0601 µM | > 10 µM
FC(F)(F)c1ccccc1CN1CCC(n2c(C3CC3)nc3ccc(C(c4ccc(Cl)cc4)c4ccc(Cl)cc4)cc32)CC1 [Example 84] | 0.0677 µM | > 10 µM
Cc1ccc(C(c2ccc(C)cc2)c2ccc3nc(C4CC4)n(C4CCN(Cc5cccc(C(=O)O)c5)CC4)c3c2)cc1 [Example 96] | 0.0273 µM | 7.92 µM
Oc1cccc(CN2CCC(n3c(C4CC4)nc4ccc(C(c5ccc(Cl)cc5)c5ccc(Cl)cc5)cc43)CC2)c1 [Example 90] | 0.0224 µM | > 10 µM
